Measurements: PubChem BioAssay (NCI)
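GI50: concentration for 50% inhibition of growth. TGI: concentration producing complete growth inhibition.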

Experiments:
Experiment in all cases: inhibition of tumour cell growth, NCI panel, 384-well format
T-47D breast = system: T-47D breast
RPMI-8226 leukemia = system: RPMI-8226 leukemia
COLO 205 colon = system: COLO 205 colon
SF-539 CNS = system: SF-539 CNS
OVCAR-4 ovarian = system: OVCAR-4 ovarian
SN12C renal = system: SN12C renal
DU-145 prostate = system: DU-145 prostate
OVCAR-3 ovarian = system: OVCAR-3 ovarian
SK-MEL-5 melanoma = system: SK-MEL-5 melanoma
786-0 renal = system: 786-0 renal
NCI-H23 lung = system: NCI-H23 lung
PC-3 prostate = system: PC-3 prostate
K-562 leukemia = system: K-562 leukemia
NCI-H460 NSCLC = system: NCI-H460 NSCLC
OVCAR-8 ovarian = system: OVCAR-8 ovarian
KM12 colon = system: KM12 colon
HCT-15 colon = system: HCT-15 colon
UACC-257 melanoma = system: UACC-257 melanoma
SW-620 colon = system: SW-620 colon
HOP-62 NSCLC = system: HOP-62 NSCLC
MDA-MB-231 breast = system: MDA-MB-231 breast
NCI-H322M lung = system: NCI-H322M lung
TK-10 renal = system: TK-10 renal
M14 melanoma = system: M14 melanoma
MCF7 breast = system: MCF7 breast
SNB-19 CNS = system: SNB-19 CNS
U251 glioblastoma = system: U251 glioblastoma
UACC-62 melanoma = system: UACC-62 melanoma
MALME-3M melanoma = system: MALME-3M melanoma
NCI-H522 lung = system: NCI-H522 lung
SK-MEL-28 melanoma = system: SK-MEL-28 melanoma
NCI/ADR-RES ovarian = system: NCI/ADR-RES ovarian
MOLT-4 leukemia = system: MOLT-4 leukemia
UO-31 renal = system: UO-31 renal
IGROV1 ovarian = system: IGROV1 ovarian
OVCAR-5 ovarian = system: OVCAR-5 ovarian
SK-OV-3 ovarian = system: SK-OV-3 ovarian
RXF 393 renal = system: RXF 393 renal
SF-268 CNS = system: SF-268 CNS
HT29 colon = system: HT29 colon
SK-MEL-2 melanoma = system: SK-MEL-2 melanoma
MDA-MB-435 melanoma = system: MDA-MB-435 melanoma
MDA-MB-468 breast = system: MDA-MB-468 breast
HOP-92 NSCLC = system: HOP-92 NSCLC
HCC-2998 colon = system: HCC-2998 colon
SR leukemia = system: SR leukemia
A549 NSCLC = system: A549 NSCLC
CCRF-CEM leukemia = system: CCRF-CEM leukemia
CAKI-1 renal = system: CAKI-1 renal
NCI-H226 lung = system: NCI-H226 lung
BT-549 breast = system: BT-549 breast
SF-295 CNS = system: SF-295 CNS
HL-60(TB) leukemia = system: HL-60(TB) leukemia
HCT-116 colon = system: HCT-116 colon
LOX IMVI melanoma = system: LOX IMVI melanoma
A498 renal = system: A498 renal
ACHN renal = system: ACHN renal

SMILES: COc1ccc([C@H](CC(=O)O)N2CCN(CCCc3ccc4c(n3)NCCC4)C2=O)cn1
- GI50 (T-47D breast): 14.2 µM
- TGI (T-47D breast): 51 µM
- GI50 (RPMI-8226 leukemia): 7.91 µM
- TGI (RPMI-8226 leukemia): 21.1 µM
- GI50 (COLO 205 colon): 36.8 µM
- TGI (COLO 205 colon): > 100 µM
- GI50 (SF-539 CNS): 10.1 µM
- TGI (SF-539 CNS): 49.2 µM
- GI50 (OVCAR-4 ovarian): 0.0228 µM
- TGI (OVCAR-4 ovarian): 15.2 µM
- GI50 (SN12C renal): 36.7 µM
- TGI (SN12C renal): > 100 µM
- GI50 (DU-145 prostate): 1.13 µM
- TGI (DU-145 prostate): > 100 µM
- GI50 (OVCAR-3 ovarian): 13.3 µM
- TGI (OVCAR-3 ovarian): > 100 µM
- GI50 (SK-MEL-5 melanoma): 83.8 µM
- TGI (SK-MEL-5 melanoma): > 100 µM
- GI50 ([…]-0 renal): 0.495 µM
- TGI (786-0 renal): 24.9 µM
- GI50 (NCI-H23 lung): > 100 µM
- TGI (NCI-H23 lung): > 100 µM
- GI50 (PC-3 prostate): 29.1 µM
- TGI (PC-3 prostate): > 100 µM
- GI50 (K-562 leukemia): 65.8 µM
- TGI (K-562 leukemia): > 100 µM
- GI50 (NCI-H460 NSCLC): 20.3 µM
- TGI (NCI-H460 NSCLC): > 100 µM
- GI50 (OVCAR-8 ovarian): 11.7 µM
- TGI (OVCAR-8 ovarian): > 100 µM
- GI50 (KM12 colon): 55.7 µM
- TGI (KM12 colon): > 100 µM
- GI50 (HCT-15 colon): 44.7 µM
- TGI (HCT-15 colon): > 100 µM
- GI50 (UACC-257 melanoma): 44.7 µM
- TGI (UACC-257 melanoma): > 100 µM
- GI50 (SW-620 colon): 88.2 µM
- TGI (SW-620 colon): > 100 µM
- GI50 (HOP-62 NSCLC): 1.24 µM
- TGI (HOP-62 NSCLC): 21.7 µM
- GI50 (MDA-MB-231 breast): 1.73 µM
- TGI (MDA-MB-231 breast): 78.3 µM
- GI50 (NCI-H322M lung): 52.6 µM
- TGI (NCI-H322M lung): > 100 µM
- GI50 (TK-10 renal): 0.0253 µM
- TGI (TK-10 renal): 0.13 µM
- GI50 (M14 melanoma): 40.6 µM
- TGI (M14 melanoma): > 100 µM
- GI50 (MCF7 breast): 30.6 µM
- TGI (MCF7 breast): > 100 µM
- GI50 (SNB-19 CNS): 0.302 µM
- TGI (SNB-19 CNS): > 100 µM
- GI50 (U251 glioblastoma): 0.561 µM
- TGI (U251 glioblastoma): > 100 µM
- GI50 (UACC-62 melanoma): 38 µM
- TGI (UACC-62 melanoma): > 100 µM
- GI50 (MALME-3M melanoma): 25.4 µM
- TGI (MALME-3M melanoma): > 100 µM
- GI50 (NCI-H522 lung): 0.151 µM
- TGI (NCI-H522 lung): 14.6 µM
- GI50 (SK-MEL-28 melanoma): 44.5 µM
- TGI (SK-MEL-28 melanoma): > 100 µM
- GI50 (NCI/ADR-RES ovarian): > 100 µM
- TGI (NCI/ADR-RES ovarian): > 100 µM
- GI50 (MOLT-4 leukemia): 21.5 µM
- TGI (MOLT-4 leukemia): 66.3 µM
- GI50 (UO-31 renal): 1.29 µM
- TGI (UO-31 renal): 8.86 µM
- GI50 (IGROV1 ovarian): 0.914 µM
- TGI (IGROV1 ovarian): 15.9 µM
- GI50 (OVCAR-5 ovarian): 0.0927 µM
- TGI (OVCAR-5 ovarian): 62.9 µM
- GI50 (SK-OV-3 ovarian): 3.35 µM
- TGI (SK-OV-3 ovarian): 65.4 µM
- TGI (RXF 393 renal): 0.0412 µM
- GI50 (SF-268 CNS): 0.336 µM
- TGI (SF-268 CNS): 28.1 µM
- GI50 (HT29 colon): 32.5 µM
- TGI (HT29 colon): > 100 µM
- GI50 (SK-MEL-2 melanoma): 0.0476 µM
- TGI (SK-MEL-2 melanoma): > 100 µM
- GI50 (MDA-MB-435 melanoma): 96.3 µM
- TGI (MDA-MB-435 melanoma): > 100 µM
- GI50 (MDA-MB-468 breast): 23.3 µM
- TGI (MDA-MB-468 breast): 68.8 µM
- GI50 (HOP-92 NSCLC): 0.166 µM
- TGI (HOP-92 NSCLC): 0.933 µM
- GI50 (HCC-2998 colon): 42.9 µM
- TGI (HCC-2998 colon): > 100 µM
- GI50 (SR leukemia): 31.5 µM
- TGI (SR leukemia): 86.5 µM
- GI50 (A549 NSCLC): 7.2 µM
- TGI (A549 NSCLC): > 100 µM
- GI50 (CCRF-CEM leukemia): 34.7 µM
- TGI (CCRF-CEM leukemia): > 100 µM
- GI50 (CAKI-1 renal): 0.023 µM
- TGI (CAKI-1 renal): 0.132 µM
- GI50 (NCI-H226 lung): 1.61 µM
- TGI (NCI-H226 lung): 42.6 µM
- GI50 (BT-549 breast): 0.162 µM
- TGI (BT-549 breast): 0.564 µM
- GI50 (SF-295 CNS): 41.1 µM
- TGI (SF-295 CNS): > 100 µM
- GI50 (HL-60(TB) leukemia): > 100 µM
- TGI (HL-60(TB) leukemia): > 100 µM
- GI50 (HCT-116 colon): 35.3 µM
- TGI (HCT-116 colon): > 100 µM
- GI50 (LOX IMVI melanoma): 21.1 µM
- TGI (LOX IMVI melanoma): 67.1 µM
- GI50 (A498 renal): 0.0192 µM
- TGI (A498 renal): 1.04 µM
- GI50 (ACHN renal): 0.516 µM
- TGI (ACHN renal): 52.3 µM
